The values that follow come from patent publication US20260263426A1, “DIAMIDINE ANALOGS FOR ANTI-INFLAMMATORY USE” (MONTDOREX INC., priority 2023, published 2026).

As a reminder, the pIC50 is −log10 of the IC50, conventionally taken in molar units.

One test deals with endo-exonuclease. Nature of the test: inhibition of endo-exonuclease activity, in-vitro. It counts as biochemical. The note with it: read-out: EE IC50. From the text: The inhibition of endo-exonuclease has been measured using pentamidine and a pentamidine analog where the center site of pentamidine (the carbon backbone) has been altered. Endo-exonuclease inhibition has been tested in-vitro.

The subject of the next test is HCT-116. Briefly: HCT-116 IC50 (Table 1). It is filed as cell-based. The conditions noted are these: Homo sapiens.
The subject of test [1] is non-alcoholic fatty liver disease. The conditions noted are these: mice; Zhao E et al (2017) Hepatology 66:922-935; cited from earlier work.

The structures appear in SMILES notation. pIC50: −log10 of the molar value.

Consider `N=C(N)c1ccc(OCCCCCCCCCCOc2ccc(C(=N)N)cc2)cc1` [Decamidine-isethionate], for which the figures for the pIC50 with endo-exonuclease and with HCT-116 were 4.63 and 5.21, respectively.

For the molecule `Cl.Cl.N=C(N)c1ccc(OCCCCCOc2ccc(C(=N)N)cc2)cc1` [Pentamidine HCl], the negative-log IC50 (pIC50) with endo-exonuclease is 4.27. In test [1], the body weight entry is “reduces”, the food intake result was “reduces”, the hepatic triglycerides entry is “reduces” and the “serum ALT” value is “reduces”. Besides, the negative-log IC50 (pIC50) with HCT-116 is 3.97.
